Structures can show the parent of a compound that is named as a salt. Where two headings read alike, the source gives them in different places.
Experiments:
[1] = Solubility (Sol., Table 1); type: physicochemical
[2] = pH (Table 1); type: physicochemical
[3] = tested on: Escherichia coli (ATCC 25922); assay: Minimum inhibitory concentration (MIC) assay, Example 33; type: cell-based; conditions: Escherichia coli
Outline: (§1)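 Broth microdilution MIC per CLSI guidelines, in CAMHB with serial 2-fold compound dilutions. Bacterial inocula were adjusted to a 0.5 McFarland standard, then diluted 1:100 and 1:2 in the wells. Plates were incubated at 35 °C, and the MIC was read according to CLSI.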

[4] = tested on: Pseudomonas aeruginosa (ATCC 27853); assay: as above; type: cell-based; conditions: Pseudomonas aeruginosa
Outline: as §1

[5] = tested on: Staphulococcus aureus (ATCC 29213); assay: as above; type: cell-based, Staphylococcus aureus; conditions: Staphylococcus aureus
Outline: as §1

[6] = tested on: Candida albicans (ATCC 90029); assay: as above; type: cell-based; conditions: Candida albicans
Outline: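 MIC read per CLSI after incubation at 35° C. Colonies in RPMI 1640 adjusted to OD530 0.08–0.13, diluted 1:50 and 1:20 to twice test density, then added 1:2 to wells holding 2-fold serial drug dilutions in RPMI 1640 (CLSI microdilution).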

[7] = tested on: Aspergillus niger (CMCC 98003); assay: as above; type: cell-based; conditions: for MIC: Aspergillus niger; for MIC Aspergillus niger: n = 2
Outline: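 Conidia gently probed from sporulating colonies into RPMI 1640, set to 0.09-0.13 at 530 nm, then diluted 1:50 and mixed 1:2 with 2-fold serially diluted compounds. Following CLSI guidelines, incubation was at 35 °C before the MIC was recorded.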

[8] = tested on: Candida albicans (ATCC 90029); assay: Time kill study, Example 33 (0 to 5 min); type: cell-based; conditions: 1×MIC
Outline: (§2)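 Viable counts (Log10 CFU/mL) came from colonies counted after 24–48 hrs on agar plates. Samples were drawn at 0 min, 30 sec, 1 min and 5 min from equal-volume mixtures of compound solution and strain suspension, then diluted in test medium; CLSI procedures followed.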

[9] = tested on: Escherichia coli (ATCC 25922); assay: Time kill study, Example 33 (0 to 5 min); type: cell-based; conditions: 1×MIC
Outline: as §2

[10] = tested on: Pseudomonas aeruginosa (ATCC 27853); assay: Time kill study, Example 33 (0 to 5 min); type: cell-based; conditions: 1×MIC
Outline: as §2

[11] = tested on: Staphylococcus aureus (ATCC 29213); assay: Time kill study, Example 33 (0 to 5 min); type: cell-based; conditions: 1×MIC
Outline: as §2

[12] = ATCC25922, Table 19 summary of Example 33 and Example 35
[13] = ATCC25922, read-out: MIC E. coli, n = 1
[14] = ATCC25922, read-out: MIC E. coli, n = 2
[15] = ATCC27853, read-out: MIC P. aeruginosa, n = 1
[16] = ATCC27853, read-out: MIC P. aeruginosa, n = 2
[17] = ATCC29213, read-out: MIC S. aureus, n = 1
[18] = ATCC29213, read-out: MIC S. aureus, n = 2
[19] = ATCC90029, read-out: MIC Candida albicans, n = 1
[20] = ATCC90029, read-out: MIC Candida albicans, n = 2
[21] = CMCC98003, read-out: MIC Aspergillus niger

Compound | Sol. [1] | pH [2] | MIC [3, 12] | MIC [3, 13] | MIC [3, 14] | MIC ([4]; ATCC27853, Table 19 summary) | MIC [4, 15] | MIC [4, 16] | MIC [5, 17] | MIC [5, 18] | MIC ([6]; ATCC90029, Table 19 summary) | MIC [6, 19] | MIC [6, 20] | MIC ([7]; CMCC98003) | MIC [7, 21] | MIC Aspergillus niger [7] | Viable counts, Escherichia coli time kill study ([9]; 0.5 min) | Viable counts, Escherichia coli time kill study ([9]; 1 min) | Viable counts, Escherichia coli time kill study ([9]; 5 min) | Viable counts, Escherichia coli time kill study ([9]; time 0) | further results
CCCCCCCCCCCOC(=O)C(C)N(C)C (stereo not shown) [Nex-67, Undecyl 2-(dimethylamino)propanoate hydrochloride] | 81% | 3.77 | 1560 µg/mL | 1560 µg/mL | 1560 µg/mL | 6250 µg/mL | 6250 µg/mL | 6250 µg/mL | 3130 µg/mL | 1560 µg/mL | 6250 µg/mL | 6250 µg/mL | 6250 µg/mL | 12500 µg/mL | 12500 µg/mL | 12500 µg/mL | 5.81 Log10 CFU/mL | 5.28 Log10 CFU/mL | 3.82 Log10 CFU/mL | 5.64 Log10 CFU/mL | Viable counts, Candida albicans time kill study ([8]; 0.5 min): 5.53 Log10 CFU/mL; Viable counts, Candida albicans time kill study ([8]; 1 min): 5.49 Log10 CFU/mL; Viable counts, Candida albicans time kill study ([8]; 5 min): 5.41 Log10 CFU/mL; Viable counts, Candida albicans time kill study ([8]; time 0): 5.58 Log10 CFU/mL; Viable counts, Pseudomonas aeruginosa time kill study ([10]; 0.5 min): <4.0 Log10 CFU/mL; Viable counts, Pseudomonas aeruginosa time kill study ([10]; 1 min): <3.70 Log10 CFU/mL; Viable counts, Pseudomonas aeruginosa time kill study ([10]; 5 min): <3.52 Log10 CFU/mL; Viable counts, Pseudomonas aeruginosa time kill study ([10]; time 0): 5.71 Log10 CFU/mL; Viable counts, Staphylococcus aureus time kill study ([11]; 0.5 min): 6.1 Log10 CFU/mL; Viable counts, Staphylococcus aureus time kill study ([11]; 1 min): 6.13 Log10 CFU/mL; Viable counts, Staphylococcus aureus time kill study ([11]; 5 min): 5.88 Log10 CFU/mL; Viable counts, Staphylococcus aureus time kill study ([11]; time 0): 6.27 Log10 CFU/mL
CCCCCCCCCCCCOC(=O)C(C)(C)N(C)C [Nex-58, Dodecyl 2-(dimethylamino)-2-methylpropanoate hydrochloride] | 51% | 2.27 | 3130 µg/mL | 3130 µg/mL | 3130 µg/mL | 6250 µg/mL | 6250 µg/mL | 6250 µg/mL | 3130 µg/mL | 1560 µg/mL | > 12500 µg/mL | > 12500 µg/mL | > 12500 µg/mL | > 12500 µg/mL | > 12500 µg/mL | >12500 µg/mL | <4.0 Log10 CFU/mL | <3.70 Log10 CFU/mL | <3.52 Log10 CFU/mL | 5.91 Log10 CFU/mL | Viable counts, Pseudomonas aeruginosa time kill study ([10]; 0.5 min): <4.0 Log10 CFU/mL; Viable counts, Pseudomonas aeruginosa time kill study ([10]; 1 min): <3.70 Log10 CFU/mL; Viable counts, Pseudomonas aeruginosa time kill study ([10]; 5 min): <3.52 Log10 CFU/mL; Viable counts, Pseudomonas aeruginosa time kill study ([10]; time 0): 5.54 Log10 CFU/mL; Viable counts, Staphylococcus aureus time kill study ([11]; 0.5 min): 6.15 Log10 CFU/mL; Viable counts, Staphylococcus aureus time kill study ([11]; 1 min): 6.11 Log10 CFU/mL; Viable counts, Staphylococcus aureus time kill study ([11]; 5 min): 5.81 Log10 CFU/mL; Viable counts, Staphylococcus aureus time kill study ([11]; time 0): 6.26 Log10 CFU/mL
CCCCCCCCCCCCOC(=O)C(CC(C)C)N(C)C (stereo not shown) [Nex-55, Dodecyl 2-(dimethylamino)-4-methylpentanoate hydrochloride] | 50% | 1.84 | 6250 µg/mL | 6250 µg/mL | 6250 µg/mL | 6250 µg/mL | 6250 µg/mL | 6250 µg/mL | 6250 µg/mL | 6250 µg/mL | > 12500 µg/mL | > 12500 µg/mL | > 12500 µg/mL | > 12500 µg/mL | > 12500 µg/mL | >12500 µg/mL | 5.71 Log10 CFU/mL | 5.51 Log10 CFU/mL | 4.6 Log10 CFU/mL | 5.68 Log10 CFU/mL | MIC ([5]; ATCC29213, Table 19 summary): 6250 µg/mL; Viable counts, Pseudomonas aeruginosa time kill study ([10]; 0.5 min): 5.61 Log10 CFU/mL; Viable counts, Pseudomonas aeruginosa time kill study ([10]; 1 min): 5.58 Log10 CFU/mL; Viable counts, Pseudomonas aeruginosa time kill study ([10]; 5 min): 5.45 Log10 CFU/mL; Viable counts, Pseudomonas aeruginosa time kill study ([10]; time 0): 5.37 Log10 CFU/mL; Viable counts, Staphylococcus aureus time kill study ([11]; 0.5 min): 6.22 Log10 CFU/mL; Viable counts, Staphylococcus aureus time kill study ([11]; 1 min): 6.21 Log10 CFU/mL; Viable counts, Staphylococcus aureus time kill study ([11]; 5 min): 6.18 Log10 CFU/mL; Viable counts, Staphylococcus aureus time kill study ([11]; time 0): 6.23 Log10 CFU/mL
CCCCCCCCCCCCOC(=O)C(Cc1ccccc1)N(C)C (stereo not shown) [Nex-54, Dodecyl 2-(dimethylamino)-3-phenylpropanoate hydrochloride] | 58% | 2.16 | ≥ 12500 µg/mL | > 12500 µg/mL | 12500 µg/mL | ≥ 12500 µg/mL | > 12500 µg/mL | 12500 µg/mL | > 12500 µg/mL | 12500 µg/mL | 6250 µg/mL | 6250 µg/mL | 6250 µg/mL | 12500 µg/mL | 12500 µg/mL | 12500 µg/mL |  |  |  |  | MIC ([5]; ATCC29213, Table 19 summary): ≥ 12500 µg/mL; Viable counts, Candida albicans time kill study ([8]; 0.5 min): 5.56 Log10 CFU/mL; Viable counts, Candida albicans time kill study ([8]; 1 min): 5.52 Log10 CFU/mL; Viable counts, Candida albicans time kill study ([8]; 5 min): 5.48 Log10 CFU/mL; Viable counts, Candida albicans time kill study ([8]; time 0): 5.56 Log10 CFU/mL
CCCCCCCCCCCCCOC(=O)C(C)N(C)C (stereo not shown) [Nex-69, Tridecyl 2-(dimethylamino)propanoate hydrochloride] | 51% | 1.64 | 3130 µg/mL | 3130 µg/mL | 3130 µg/mL | 6250 µg/mL | 6250 µg/mL | 6250 µg/mL | 3130 µg/mL | 3130 µg/mL | 12500 µg/mL | 12500 µg/mL | 12500 µg/mL | > 12500 µg/mL | > 12500 µg/mL | >12500 µg/mL | 5.72 Log10 CFU/mL | 5.54 Log10 CFU/mL | <3.52 Log10 CFU/mL | 6.25 Log10 CFU/mL | MIC ([5]; ATCC29213, Table 19 summary): 3130 µg/mL; Viable counts, Pseudomonas aeruginosa time kill study ([10]; 0.5 min): 5.75 Log10 CFU/mL; Viable counts, Pseudomonas aeruginosa time kill study ([10]; 1 min): 5.74 Log10 CFU/mL; Viable counts, Pseudomonas aeruginosa time kill study ([10]; 5 min): 5.21 Log10 CFU/mL; Viable counts, Pseudomonas aeruginosa time kill study ([10]; time 0): 5.65 Log10 CFU/mL; Viable counts, Staphylococcus aureus time kill study ([11]; 0.5 min): 6.39 Log10 CFU/mL; Viable counts, Staphylococcus aureus time kill study ([11]; 1 min): 6.31 Log10 CFU/mL; Viable counts, Staphylococcus aureus time kill study ([11]; 5 min): 6.38 Log10 CFU/mL; Viable counts, Staphylococcus aureus time kill study ([11]; time 0): 6.41 Log10 CFU/mL
